Experimental data: patent US8012956B2, “Tropane compounds” (Exelixis, Inc., priority 2007, dated 2011)

Target: HSP90 (Homo sapiens, UniProt P07900)
Assay: HSP90 inhibition (HSP90 IC50)
Type: biochemical

Compound	IC50
COc1cccc(C(=O)N[C@H]2C[C@H]3CC[C@@H](C2)N3c2ccc(C(=O)NCc3c(F)cccc3OC)cn2)c1C [N-{[2-fluoro-6-(methyloxy)phenyl]methyl}-6-[3-endo-({[2-methyl-3-(methyloxy)phenyl]carbonyl}amino)-8-azabicyclo[3.2.1]oct-8-yl]pyridine-3-carboxamide]	1000 to 2000 nM
COc1cc(CNC(=O)c2ccc(N3[C@@H]4CC[C@H]3C[C@@H](NC(=O)c3cccc(OC)c3C)C4)nc2)cc(OC)c1 [N-{[3,5-bis(methyloxy)phenyl]methyl}-6-[3-endo-({[2-methyl-3-(methyloxy)phenyl]carbonyl}amino)-8-azabicyclo[3.2.1]oct-8-yl]pyridine-3-carboxamide]	1000 to 2000 nM
COc1cccc(C(=O)N[C@H]2C[C@H]3CC[C@@H](C2)N3c2ccc(C(=O)NCc3ccc(N4CCN(C)CC4)c(F)c3)cn2)c1C [N-{[3-fluoro-4-(4-methylpiperazin-1-yl)phenyl]methyl}-6-[3-endo-({[2-methyl-3-(methyloxy)phenyl]carbonyl}amino)-8-azabicyclo[3.2.1]oct-8-yl]pyridine-3-carboxamide]	< 500 nM
COc1ccc(CNC(=O)c2ccc(N3[C@@H]4CC[C@H]3C[C@@H](NC(=O)c3cccc(OC)c3C)C4)nc2)cc1F [N-{[3-fluoro-4-(methyloxy)phenyl]methyl}-6-[3-endo-({[2-methyl-3-(methyloxy)phenyl]carbonyl}amino)-8-azabicyclo[3.2.1]oct-8-yl]pyridine-3-carboxamide]	< 500 nM
COc1cc(F)ccc1CNC(=O)c1ccc(N2[C@@H]3CC[C@H]2C[C@@H](NC(=O)c2cccc(OC)c2C)C3)nc1 [N-{[4-fluoro-2-(methyloxy)phenyl]methyl}-6-[3-endo-({[2-methyl-3-(methyloxy)phenyl]carbonyl}amino)-8-azabicyclo[3.2.1]oct-8-yl]pyridine-3-carboxamide]	1000 to 2000 nM
COc1cc(CNC(=O)c2ccc(N3[C@@H]4CC[C@H]3C[C@@H](NC(=O)c3cccc(OC)c3C)C4)nc2)ccc1F [N-{[4-fluoro-3-(methyloxy)phenyl]methyl}-6-[3-endo-({[2-methyl-3-(methyloxy)phenyl]carbonyl}amino)-8-azabicyclo[3.2.1]oct-8-yl]pyridine-3-carboxamide]	500 to 999 nM
CCOC(=O)N1CCC(NC(=O)c2ccc(N3[C@@H]4CC[C@H]3C[C@@H](NC(=O)c3cccc(OC)c3C)C4)nc2)CC1 [ethyl 4-[({6-[3-endo-({[2-methyl-3-(methyloxy)phenyl]carbonyl}amino)-8-azabicyclo[3.2.1]oct-8-yl]pyridin-3-yl}carbonyl)amino]piperidine-1-carboxylate]	< 500 nM
N4-(8-{5-[({(1S)- 1-[4-(4- methylpiperazin-1- yl)phenyl]ethyl}amino)carbonyl]pyridin- 2-yl}-8-azabicyclo[3.2.1]oct-3- endo-yl)-2-(phenylamino)benzene- 1,4-dicarboxamide	< 500 nM
N4-[8-(5-butanoylpyridin-2-yl)-8- azabicyclo[3.2.1]oct-3-endo-yl]-2- [(cyclopropylmethyl)amino]benzene- 1,4-dicarboxamide	500 to 999 nM
N4-{8-[5- (cyclopropylcarbonyl)pyridin-2-yl]-8- azabicyclo[3.2.1]oct-3-endo-yl}-2- [(cis-4-hydroxy-4- methylcyclohexyl)amino]benzene- 1,4-dicarboxamide	< 500 nM
N-[8-(5-acetylpyradin-2-yl)-8- azabicyclo[3.2.1]oct-3-endo-yl]-2- methyl-3-(methyloxy)benzamide	500 to 999 nM
N-[(1S,2S)-2-hydroxycyclopentyl]-6- [3-endo-({[2-methyl-3- (methyloxy)phenyl]oarbonyl}amino)- 8-azabicyclo[3.2.1]oct-8-yl]pyridine- 3-carboxamide	500 to 999 nM
N-{8-[5-(cyclopropylcarbonyl)pyridin- 2-yl]-8-azabicyclo[3.2.1]oct-3-endo- yl}-5-[(1-ethylpropyl)amino]-2- methylbenzene-1,4-dicarboxamide	< 500 nM
